Test results reported in paper PMC5285354, “Cationic Net Charge and Counter Ion Type as Antimicrobial Activity Determinant Factors of Short Lipopeptides” (Frontiers in Microbiology, 2017).
In brackets after ≈: the same amount, converted by molar mass. Read-outs that look alike come from different tables or passages of the source. Where a SMILES comes first, the peptide text is derived from it. The star is where a group is joined. Lauroyl = CCCCCCCCCCCC(=O)*; Decanoyl = CCCCCCCCCC(=O)*

Columns and labels:
Format in all cases: cell-based
[1] = test system: Aspergillus brasiliensis (ATCC 16404); settings: ATCC 16404, 48 h
Description: (§1) The minimum inhibitory concentration (MIC), minimum bactericidal concentration (MBC) and minimum fungicidal concentration (MFC) were determined according to the procedure recommended by the Clinical Laboratory Standards Institute (CLSI). The following reference strains were tested: Gram-negative E. coli (ATCC 25922), K. pneumoniae (ATCC 700603), P. vulgaris (PCM 2668), P. aeruginosa (ATCC 9027), Gram-positive S. aureus (ATCC 25923), S. epidermidis (PCM 2118), B. subtilis (ATCC 6633), E. faecalis (ATCC 29212) and fungi C. albicans (ATCC 10231), C. tropicalis (PCM 2681), and A. brasiliensis (ATCC 16404). All the microorganisms were from the Polish Collection of Microorganisms (Wroclaw, Poland). MIC was determined using a microbroth dilution method with Mueller-Hinton (MH) broth for bacteria and Sabouraud Dextrose broth for fungi (Becton Dickinson, Le Pont de Claix, France). An initial inoculum of 10^5 cfu/mL was used for bacteria and 10^3 cfu/mL for fungi. Polypropylene 96-well plates (Kartell, Noviglio, Italy) were incubated for 18 h at 37°C for bacteria and for 48 h at 25°C for the tested fungi. MIC (μg/mL) was taken as the lowest concentration of the lipopeptide, at which the observable growth was inhibited. […] The experiments were performed in triplicate on three different days.

[2] = test system: Bacillus subtilis (ATCC 6633); settings: for MIC Bacillus subtillis: ATCC 6633, 18 h; for MBC Bacillus subtillis: ATCC 6633, 24 h
Description: as §1

[3] = test system: Candida albicans (ATCC 10231); settings: ATCC 10231, 48 h
Description: as §1

[4] = test system: Klebsiella pneumoniae (ATCC 700603)
Description: as §1

[5] = test system: Escherichia coli (ATCC 25922)
Description: as §1

[6] = test system: Candida tropicalis (PCM 2681); settings: PCM 2681, 48 h
Description: as §1

[7] = test system: Staphylococcus epidermidis (PCM 2118); settings: for MIC Staphylococcus epidermidis: PCM 2118, 18 h; for MBC Staphylococcus epidermidis: PCM 2118, 24 h
Description: as §1

[8] = test system: Enterococcus faecalis (ATCC 29212)
Description: as §1

[9] = test system: Pseudomonas aeruginosa (ATCC 9027); settings: ATCC 9027, 18 h
Description: as §1

[10] = test system: Proteus vulgaris (PCM 2668); settings: PCM 2668, TFA salt, triplicate; for MIC Proteus vulgaris: Mueller-Hinton broth, 10^5 cfu/mL, 18 h 37°C; for MBC Proteus vulgaris: subculture on Mueller-Hinton II Agar, 24 h 37°C
Description: as §1

[11] = test system: Staphylococcus aureus (ATCC 25923)
Description: as §1

[12] = test system: Pseudomonas aeruginosa (ATCC 9027); settings: ATCC 9027, 24 h
[13] = test system: human red blood cells; settings: 1 h
Description: The hemolytic activity of the lipopeptides was determined by exposing human red blood cells (4% v/v) to tested compounds at graded concentrations. Red blood cells were obtained from a healthy donor. EDTA was used to prevent the blood clotting. The plasma was removed via centrifugation and the erythrocytes were washed three times with PBS. The red blood cells were suspended in PBS and incubated with different concentrations of lipopeptides at 37°C for 1 h and centrifuged for 5 min at 1000 × g. The supernatants were transferred to a sterile 96-well plate and hemoglobin release was measured with an Epoch microplate spectrophotometer (BioTek, USA) by recording the absorbance at 550 nm. A 0.1% Triton X-100 solution was used as the positive control (100% of hemolysis) and pure PBS as the negative (0% of hemolysis). Minimum hemolytic concentration (MHC) was taken as the lowest concentration which induced 10% of hemolysis.

[14] = ATCC 25922, TFA salt, Mueller-Hinton broth, 10^5 cfu/mL, 18 h 37°C, triplicate
[15] = ATCC 25922, TFA salt, subculture on Mueller-Hinton II Agar, 24 h 37°C, triplicate
[16] = ATCC 29212, TFA salt, Mueller-Hinton broth, 10^5 cfu/mL, 18 h 37°C, triplicate
[17] = ATCC 29212, TFA salt, subculture on Mueller-Hinton II Agar, 24 h 37°C, triplicate
[18] = ATCC 25923, TFA salt, MIC wells subcultured on Mueller-Hinton II Agar, 24 h 37°C, triplicate
[19] = ATCC 25923, TFA salt, Mueller-Hinton broth, 10^5 cfu/mL, 18 h 37°C, triplicate on three days

SMILES | MFC Aspergillus brasiliensis [1] [mg/L] | MIC Aspergillus brasiliensis [1] [mg/L] | MIC Bacillus subtillis [2] [mg/L] | MBC Bacillus subtillis [2] [mg/L] | MFC Candida albicans [3] [mg/L] | MIC Candida albicans [3] [mg/L] | MFC Candida tropicalis [6] [mg/L] | MIC Candida tropicalis [6] [mg/L] | MIC Staphylococcus epidermidis [7] [mg/L] | MBC Staphylococcus epidermidis [7] [mg/L] | MBC Enterococcus fecalis [8, 17] [mg/L] | MIC Pseudomonas aeruginosa [9] [mg/L] | MIC Proteus vulgaris [10] [mg/L] | MBC Proteus vulgaris [10] [mg/L] | MBC Staphylococcus aureus [11, 18] [mg/L] | MBC Pseudomonas aeruginosa [12] [mg/L] | MIC Klebsiella pneumoniae ([4]; ATCC 700603, 18 h) [mg/L] | MBC Klebsiella pneumoniae ([4]; ATCC 700603, 24 h) [mg/L] | MIC Enterococcus fecalis ([8]; ATCC 29212, 18 h) [mg/L] | MIC Escherichia coli ([5]; ATCC 25922, 18 h) [mg/L] | further results
CCCCCCCCCC(=O)N[C@@H](CCCCN)C(=O)NCC(=O)N[C@@H](CCCCN)C(N)=O [C10-KGK-NH2] (Decanoyl-Lys-Gly-Lys-NH2) | 1000 (≈ 2060 µM) | 1000 (≈ 2060 µM) | 512 (≈ 1060 µM) | 1000 (≈ 2060 µM) | 1000 (≈ 2060 µM) | 1000 (≈ 2060 µM) | 1000 (≈ 2060 µM) | 512 (≈ 1060 µM) | 512 (≈ 1060 µM) | 512 (≈ 1060 µM) | >2000 | 2000 (≈ 4130 µM) | >2000 | >2000 | >2000 | 2000 (≈ 4130 µM) |  |  |  |  | MIC Klebsiella pneumoniae ([4]; ATCC 700603, TFA salt, Mueller-Hinton broth, 10^5 cfu/mL, 18 h 37°C, triplicate): >2000 mg/L; MBC Klebsiella pneumoniae ([4]; ATCC 700603, TFA salt, subculture on Mueller-Hinton II Agar, 24 h 37°C, triplicate): >2000 mg/L; MIC Escherichia coli [5, 14]: >2000 mg/L; MBC Escherichia coli [5, 15]: >2000 mg/L; MIC Enterococcus fecalis [8, 16]: >2000 mg/L; MIC Staphylococcus aureus [11, 19]: >2000 mg/L
CCCCCCCCCC(=O)N[C@@H](CCCCN)C(=O)NCC(N)=O [C10-KG-NH2] (Decanoyl-Lys-Gly-NH2) | 2000 (≈ 5610 µM) | 1000 (≈ 2800 µM) | 512 (≈ 1440 µM) | 512 (≈ 1440 µM) | 2000 (≈ 5610 µM) | 1000 (≈ 2800 µM) | 2000 (≈ 5610 µM) | 1000 (≈ 2800 µM) | 512 (≈ 1440 µM) | 1000 (≈ 2800 µM) | >1000 | 1000 (≈ 2800 µM) | >2000 | >2000 | >2000 | 2000 (≈ 5610 µM) | 1000 (≈ 2800 µM) | 2000 (≈ 5610 µM) | 1000 (≈ 2800 µM) |  | MIC Escherichia coli [5, 14]: >2000 mg/L; MBC Escherichia coli [5, 15]: >2000 mg/L; MIC Staphylococcus aureus [11, 19]: >2000 mg/L
CCCCCCCCCCCC(=O)N[C@@H](CCCCN)C(=O)N[C@@H](CCCCN)C(N)=O [C12-KK-NH2] | 2000 (≈ 4390 µM) | 2000 (≈ 4390 µM) | 64 (≈ 140 µM) | 128 (≈ 281 µM) | 2000 (≈ 4390 µM) | 1000 (≈ 2190 µM) | 2000 (≈ 4390 µM) | 1000 (≈ 2190 µM) | 64 (≈ 140 µM) | 64 (≈ 140 µM) |  | 2000 (≈ 4390 µM) | >2000 | >2000 |  | 2000 (≈ 4390 µM) | 2000 (≈ 4390 µM) | 2000 (≈ 4390 µM) | 512 (≈ 1120 µM) | 2000 (≈ 4390 µM) | MBC Escherichia coli ([5]; ATCC 25922, 24 h): 2000 mg/L (≈ 4390 µM); MBC Enterococcus fecalis ([8]; ATCC 29212, 24 h): 512 mg/L (≈ 1120 µM); MIC Staphylococcus aureus ([11]; ATCC 25923, 18 h): 2000 mg/L (≈ 4390 µM); MBC Staphylococcus aureus ([11]; ATCC 25923, 24 h): 2000 mg/L (≈ 4390 µM)
CCCCCCCCCCCC(=O)N[C@@H](CCCCN)C(=O)N[C@@H](CCCCN)C(=O)N[C@@H](CCCCN)C(=O)N[C@@H](CCCCN)C(N)=O [C12-KKKK-NH2] (Lauroyl-KKKK-NH2) | 256 (≈ 360 µM) | 128 (≈ 180 µM) | 128 (≈ 180 µM) | 256 (≈ 360 µM) | 256 (≈ 360 µM) | 256 (≈ 360 µM) | 512 (≈ 719 µM) | 256 (≈ 360 µM) | 64 (≈ 89.9 µM) | 64 (≈ 89.9 µM) |  |  | >2000 |  |  |  |  | 1000 (≈ 1400 µM) | 512 (≈ 719 µM) | 256 (≈ 360 µM) | MBC Escherichia coli ([5]; ATCC 25922, 24 h): 256 mg/L (≈ 360 µM); MBC Enterococcus fecalis ([8]; ATCC 29212, 24 h): 512 mg/L (≈ 719 µM); MIC Staphylococcus aureus ([11]; ATCC 25923, 18 h): 1000 mg/L (≈ 1400 µM); MBC Staphylococcus aureus ([11]; ATCC 25923, 24 h): 1000 mg/L (≈ 1400 µM); Hemolysis HC10 (MHC), concentration of lipopeptide inducing 10% of hemolysis [13]: 1000 µg/mL
CCCCCCCCCC(=O)N[C@@H](CCCCN)C(N)=O [C10-K-NH2] | 1000 (≈ 3340 µM) | 512 (≈ 1710 µM) | 1000 (≈ 3340 µM) | 1000 (≈ 3340 µM) | 2000 (≈ 6680 µM) | 1000 (≈ 3340 µM) | 2000 (≈ 6680 µM) | 1000 (≈ 3340 µM) | 1000 (≈ 3340 µM) | 1000 (≈ 3340 µM) | >2000 | 512 (≈ 1710 µM) | >2000 | >2000 | >1000 | 1000 (≈ 3340 µM) | 1000 (≈ 3340 µM) | 1000 (≈ 3340 µM) |  | 1000 (≈ 3340 µM) | MBC Escherichia coli ([5]; ATCC 25922, 24 h): 1000 mg/L (≈ 3340 µM); MIC Enterococcus fecalis [8, 16]: >2000 mg/L; MIC Staphylococcus aureus ([11]; ATCC 25923, 18 h): 1000 mg/L (≈ 3340 µM)
